From patent US11865110B2, “Thrombin inhibitors, formulations, and uses thereof” (VERSEON INTERNATIONAL CORPORATION, priority 2018, dated 2024)

Tests used:
thrombin = target: T1, thrombin (Homo sapiens, UniProt P00734); assay: Human Thrombin Generation Assay (TGA); type: biochemical; conditions: concentration that reduces endogenous thrombin potential AUC by 50%; human plasma; read-out: ETP EC50
T1 construct: from tissue; host or cells: human plasma (thrombin generated in situ by tissue factor, phospholipids and CaCl2)
Experimental: Results for the human thrombin generation assay (TGA; not to be confused with “thermogravimetric analysis” which is used elsewhere and carries the same acronym. One of skill in the art will appreciate which meaning is intended based on context of the surrounding technical information.) were generated as follows. In a 96-well plate, 4 μL of 100, 33.3, 11.1, 3.7, 1.23, 0.41, 0.137, and 0.046 μM solutions of the test compounds in DMSO were added to sequential wells filled with 68 μL of a “TGA Working Solution.” See description of this solution as well as other relevant solutions below. The plate was incubated at room temperature for 10 minutes, whereupon 8 μL of warm “Substrate Solution” was added to each well, resulting in a 500 μM concentration of the substrate, Z-GGR-AMC (Z-Gly-Gly-Arg-7-amino-4-methylcoumarin·HCl), in each well. Fluorescence intensity data (Ex/Em 380/460 nm) collection began immediately using a Cytation™ or Synergy™ H1 96-well plate reader set to incubate the plate at 37° C. over the data collection time of 90 minutes following double-orbital shaking for a period of 4 seconds. Test compounds were measured parallel to blanks and controls, as well as to wells of the substrate in DMSO at various concentrations (2.50, 0.833, 0.278, 0.093 mM) in the buffers to generate a standard fluorescence curve. Data values were computed automatically, including the ETP EC50 value of the AUC, which is the concentration of the compound that reduces endogenous thrombin potential AUC by 50%.
The various solutions were prepared as follows. A HEPES/NaCl Assay buffer was made by combining 7.5 mL of 5M NaCl, 1.19 g 4-(2-hydroxyethyl)piperazine-1-ethanesulfonic acid (HEPES) and 230 mL of water. An “Innovin Master Solution” was made by combining 20 μL of Siemens Dade Innovin recombinant tissue factor and thromboplastin with 50 μL of 0.5 mM phospholipid-TGT acquired from DiaPharma® in 450 μL of the above HEPES/NaCl Assay buffer. This solution was then vortexed for a few seconds. Next the “Substrate Master Solution” was made by adding 3.2 mL DMSO to 100 mg of Z-GGR-AMC (Z-Gly-Gly-Arg-7-amino-4-methylcoumarin·HCl) and vortexing in a polystyrene tube. This solution was stored at −20° C. A “TGA Working Solution” was prepared by adding 6.2 mL of human plasma, 50 μL of the Innovin Master Solution, and 80 μL of phospholipids to 2.6 mL of HEPES/NaCl Assay buffer. A “Substrate Working Solution” was made immediately before addition to the assay plate by adding 200 μL of the above “Substrate Master Solution” to a pre-warmed (37° C.) mixture of 1.46 mL of HEPES/NaCl Assay buffer and 340 μL of 1M CaCl2).
For additional description of this assay, please see Robert, S. et al. ‘Is thrombin generation the new rapid, reliable and relevant pharmacological tool for the development of anticoagulant drugs?’2009, Pharmacol Res 59:160-6 as well as Hemker, H. C. et al. ‘Calibrated automated thrombin generation measurement in clotting plasma.’ 2003, Pathophysiol Haemost Thromb 33:4-15.

[1] = Mouse liver microsome stability; type: in vitro ADME, mouse (CD-1); conditions: pH 7.4; CD-1 mouse liver microsomes 0.5 mg/mL, NADPH, 37° C.; lower measurable bound 5
Experimental: In a 96-well Nunc™ plate, 1.5 μL of a 200 μM solution of the test compound in DMSO were placed in a well. This plate, the “Reaction Plate,” was then warmed to 37° C. in an oven. In a second 96-well Nunc™ plate, the “Quench Plate,” six wells were filled with 180 μL of an internal standard quench solution composed of 100 nM diclofenac in acetonitrile. These six wells correspond to the six time points for data collection: 0, 0.5, 5, 15, 30, and 60 minutes. “Assay Buffer” was prepared by combining 6.96 g potassium phosphate, dibasic, 1.36 g potassium phosphate, monobasic, and 0.30 g of magnesium chloride hexahydrate, then diluting to a final concentration of 500 mL in water and adjusting to pH 7.4, as needed. Assay Buffer was warmed to 37° C., and 12 mL were added to a 10-mg vial of NADPH. Then 300 μL of a 20 mg/mL liver microsome suspension were added to yield a 0.5 mg/mL liver microsome suspension. 300 μL of this liver microsome suspension was then added to the test compound solution in the Reaction Plate and mixed thoroughly with a pipette tip. At each time point, 30 μL of this mixture was transferred to the corresponding well of the Quench Plate. In between time points, the Reaction Plate was kept sealed and warmed in an incubator at 37° C. When the last time point had been completed, the quench plate was centrifuged at 4° C. at 1000×g for 10 minutes. Afterwards, 50 μL of the supernatant of each well was transferred to unique, corresponding wells of a 96-well Costar® plate, the “Analysis Plate,” filled with 150 μL of 50:50 acetonitrile:HyClone™ water. The Analysis Plate was then sealed with a pre-slit plate seal before analysis via an appropriate LCMS method with a 10 μL injection. The abstracted AUC data were then automatically plotted to calculate intrinsic clearance in μL/min/mg. This experiment was run alongside a positive and negative control. Due to the parameters of this procedure, one of skill in the art will appreciate that this assay has a lower measurable bound of 5 μL/min/mg; therefore, certain compounds have their clearances labeled as ≤5 μL/min/mg.

Mouse plasma stability = type: in vitro ADME, mouse (CD-1); conditions: CD-1 mouse plasma, 37° C., time points to 160 min; read-out: Mouse Plasma Stability t1/2
Experimental: Alongside a positive control of propantheline bromide, 8 μL of a 1 mM solution of each test compound in DMSO was placed in two wells of a Nunc™ 96-well plate called the “dilution plate.” To one well, 392 μL of HyClone™ water was added and mixed by a pipette. To the other well, 392 μL of mouse or rat plasma stabilized with sodium citrate purchased from Innovative Research was added and mixed by a pipette. The dilution plate was kept covered to reduce solvent evaporation and heated in an incubator at 37° C. At each of the time points enumerated below, the plate was removed from the incubator and 50 μL of the test compound/water or test compound/plasma solutions were transferred to a unique, corresponding well in a “quench plate” (96-well Costar® plate) that contains 150 μL of a quench solution that contains an internal standard (20 uM diclofenac in acetonitrile). The dilution plate was then returned to the incubator. This process was performed at 0, 5, 10, 20, 40, 80, and 160 minutes from the original mixing of the test compounds with the water or plasma in the dilution plate. After the quenching of the 160-minute time point, the quench plate was then centrifuged at 4° C. at 1000×g for 10 minutes. 100 μL of the supernatant of each well were then transferred to corresponding unique wells in a “read plate” (96-well Costar® plate) that were filled with 100 μL of HyClone™ water. The plate was then sealed and analyzed via UHPLC using a 10-μL sample injection through a Phenomenex® Kinetex column pre-equilibrated with the loading buffer (95:5 water:acetonitrile). The parameters were as follows. Mobile Phase A: water, 0.025% formic acid. Mobile Phase B: acetonitrile, 0.025% formic acid. Flow Rate: 0.5 mL/min. […] Half-life (t1/2) times were computed by using a chi-square analysis to fit the peak areas to an exponential decay model for compound concentration as a function of time.

malignant breast tumors = conditions: treated mice, cited from earlier work

EC50 (thrombin) [nM] | Compound | other results
2900 | CCOC(=O)CCn1cccc(-c2cc(NCc3ccc(Cl)s3)n(C(=O)C(C)(C)C)n2)c1=O [Compound 15, ethyl 3-[3-(5-{[(5-chlorothiophen-2-yl)methyl]amino}-1-(2,2-dimethylpropanoyl)-1H-pyrazol-3-yl)-2-oxo-1,2-dihydropyridin-1-yl]propanoate] | 
1700 to 10000 | CC(C)(CO)C(=O)n1nc(-c2cccn(CCC(=O)O)c2=O)cc1NCc1ccc(Cl)s1 [Compound 10, 3-[3-(5-{[(5-chlorothiophen-2-yl)methyl]amino}-1-(3-hydroxy-2,2-dimethylpropanoyl)-1H-pyrazol-3-yl)-2-oxo-1,2-dihydropyridin-1-yl]propanoic acid] | microsomal CLint at 1 µM [1]: 4 µL/min/mg; half-life at 20 µM (Mouse plasma stability): 1.17 h
2400 | Cc1nc(C)c(COC(=O)CCn2cccc(-c3cc(NCc4ccc(Cl)s4)n(C(=O)C(C)(C)C)n3)c2=O)nc1C [Compound 20, (3,5,6-trimethylpyrazin-2-yl)methyl 3-[3-(5-{[(5-chlorothiophen-2-yl)methyl]amino}-1-(2,2-dimethylpropanoyl)-1H-pyrazol-3-yl)-2-oxo-1,2-dihydropyridin-1-yl]propanoate] | 
850 to 970 | COCCn1cccc(-c2cc(NCc3ccc(Cl)s3)n(C(=O)C(C)(C)C)n2)c1=O [Compound 7, 3-(5-{[(5-chlorothiophen-2-yl)methyl]amino}-1-(2,2-dimethylpropanoyl)-1H-pyrazol-3-yl)-1-(2-methoxyethyl)-1,2-dihydropyridin-2-one] | microsomal CLint at 1 µM [1]: 290 µL/min/mg; half-life at 20 µM (Mouse plasma stability): ≥ 5 h
1900 | C=CCOC(=O)CCn1cccc(-c2cc(NCc3ccc(Cl)s3)n(C(=O)C(C)(C)C)n2)c1=O [Compound 16, prop-2-en-1-yl 3-[3-(5-{[(5-chlorothiophen-2-yl)methyl]amino}-1-(2,2-dimethylpropanoyl)-1H-pyrazol-3-yl)-2-oxo-1,2-dihydropyridin-1-yl]propanoate] | 

Second part, the molecule before the results:

Compound | EC50 (thrombin) [nM] | other results
CC(=O)OC(C)OC(=O)CCn1cccc(-c2cc(NCc3ccc(Cl)s3)n(C(=O)C(C)(C)C)n2)c1=O (stereo not shown) [Compound 18, 1-(acetyloxy)ethyl 3-[3-(5-{[(5-chlorothiophen-2-yl)methyl]amino}-1-(2,2-dimethylpropanoyl)-1H-pyrazol-3-yl)-2-oxo-1,2-dihydropyridin-1-yl]propanoate] | 1300 | 
[2H]C([2H])(Nc1cc(-c2cccn(CCC(=O)O)c2=O)nn1C(=O)C(C)(C)C)c1ccc(Cl)s1 [Compound 24, 3-[3-(5-{[(5-chlorothiophen-2-yl)(2H2)methyl]amino}-1-(2,2-dimethylpropanoyl)-1H-pyrazol-3-yl)-2-oxo-1,2-dihydropyridin-1-yl]propanoic acid] | 2400 | 
CC(=O)OCCOC(=O)CCn1cccc(-c2cc(NCc3ccc(Cl)s3)n(C(=O)C(C)(C)C)n2)c1=O [Compound 17, 2-(acetyloxy)ethyl 3-[3-(5-{[(5-chlorothiophen-2-yl)methyl]amino}-1-(2,2-dimethylpropanoyl)-1H-pyrazol-3-yl)-2-oxo-1,2-dihydropyridin-1-yl]propanoate] | 1200 | 
CC(C)[C@H](NC(=O)OC(C)(C)C)C(=O)OCOC(=O)CCn1cccc(-c2cc(NCc3ccc(Cl)s3)n(C(=O)C(C)(C)C)n2)c1=O [Compound 21, ({3-[3-(5-{[(5-chlorothiophen-2-yl)methyl]amino}-1-(2,2-dimethylpropanoyl)-1H-pyrazol-3-yl)-2-oxo-1,2-dihydropyridin-1-yl]propanoyl}oxy)methyl (2S)-2-{[(tert-butoxy)carbonyl]amino}-3-methylbutanoate] | 4800 | 
CCCCCCOC(=O)N=C(N)c1ccc(NCc2nc3cc(C(=O)N(CCC(=O)OCC)c4ccccn4)ccc3n2C)cc1 [dabigatran etexilate] |  | reduction in tumor volume (malignant breast tumors; at 4 weeks): 50%; reduction of tumor cells in the blood and liver micrometastases (malignant breast tumors): 50-60%
CC(C)(C)C(=O)n1nc(-c2cccn(CC(F)(F)C(=O)O)c2=O)cc1NCc1ccc(Cl)s1 [Compound 6, 3-[3-(5-{[(5-chlorothiophen-2-yl)methyl]amino}-1-(2,2-dimethylpropanoyl)-1H-pyrazol-3-yl)-2-oxo-1,2-dihydropyridin-1-yl]-2,2-difluoropropanoic acid] | 5400 | microsomal CLint at 1 µM [1]: 9 µL/min/mg; half-life at 20 µM (Mouse plasma stability): 0.117 h
[2H]C([2H])(C(=O)O)C([2H])([2H])n1cccc(-c2cc(NCc3ccc(Cl)s3)n(C(=O)C(C)(C)C)n2)c1=O [Compound 22, 3-[3-(5-{[(5-chlorothiophen-2-yl)methyl]amino}-1-(2,2-dimethylpropanoyl)-1H-pyrazol-3-yl)-2-oxo-1,2-dihydropyridin-1-yl](2H4)propanoic acid] | 1900 | 
